Measured values published in patent publication US20220008447A1, “Rosacea Treatment Method” (priority 2019, published 2022).

Tests used:
[1] = tested on: rosacea; details: cited from earlier work
[2] = tested on: patient with rosacea; test: Application b.i.d. of other Delphinidin topical formulations to the face of a rosacea patient (Examples 11-13, present tense); type: in vivo, human
From the text: A topical gel is made with delphinidin 3,5-O-diglucoside 7% (w/w) in a standard cosmetic disappearing gel base. Application b.i.d. to the face of a patient with lupus-related rosacea, for at least about one month alleviates lupus-related skin inflammation and the patient maintains normal, healthy skin. A topical cream is made with delphinidin 6% (w/w) in a standard cosmetic lipophilic cream base. […] A topical cream is made with delphinidin 3-O-sambubioside 5-O-glucoside 3% (w/w) in a standard cosmetic disappearing cream base. Application b.i.d. to the face of a patient with papulopustular rosacea with transient, central face pustules for two months reduces central facial erythema and eliminates transient central face pustules.

[3] = Example 13, 3% (w/w) disappearing cream, papulopustular rosacea, two months

CC[C@H]1OC(=O)[C@H](C)[C@@H](O[C@H]2C[C@@](C)(OC)[C@@H](O)[C@H](C)O2)[C@H](C)[C@@H](O[C@@H]2O[C@H](C)C[C@H](N(C)C)[C@H]2O)[C@](C)(O)C[C@@H](C)CN(C)[C@H](C)[C@@H](O)[C@]1(C)O [Azithromycin]
efficacy compared with 100 mg doxycycline ([1]; only one study): may be as effective as 100 mg doxycycline

Oc1cc(O)c2cc(O)c(-c3cc(O)c(O)c(O)c3)[o+]c2c1 [delphinidin, 2-(3,4,5-trihydroxyphenyl) chromenylium-3,5,7-triol]
flushing, persistent central facial erythema and telangiectasia ([2]; Example 12, 6% (w/w) lipophilic cream, erythematotelangiectatic rosacea, two weeks): measurably reduces

OC[C@H]1O[C@@H](Oc2cc3c(O[C@@H]4O[C@H](CO)[C@@H](O)[C@H](O)[C@H]4O)cc(O)cc3[o+]c2-c2cc(O)c(O)c(O)c2)[C@H](O)[C@@H](O)[C@@H]1O [delphinidin 3,5-O-diglucoside]
lupus-related skin inflammation ([2]; Example 11, 7% (w/w) topical gel, lupus-related rosacea, at least about one month): alleviates

CC1=C(/C=C/C(C)=C/C=C/C(C)=C\C(=O)O)C(C)(C)CCC1 [isotretinoin]
efficacy compared with doxycycline, pimples and pustules ([1]; low dose, 0.3 mg/kg): slightly more effective than 50-100 mg doxycycline

Brc1c(NC2=NCCN2)ccc2nccnc12 [brimonidine]
duration of effect on redness after being applied ([1]; prior-art treatment): up to 12 hours

C[C@H]1c2cccc(O)c2C(=O)C2=C(O)[C@]3(O)C(=O)C(C(N)=O)=C(O)[C@@H](N(C)C)[C@@H]3[C@@H](O)[C@@H]21 [doxycycline]
side effects of low dose compared with 100 mg ([1]; low dose, 40 mg): much fewer side effects of diarrhea and nausea

O=C(O)CCCCCCCC(=O)O [azelaic acid]
reducing rosacea symptoms ([1]; prior-art treatment): effective and safe | side effects ([1]; prior-art treatment): caused mild burning, stinging or irritation | time until improvements appear ([1]; prior-art treatment): three to six

OC[C@H]1O[C@@H](Oc2cc(O)cc3[o+]c(-c4cc(O)c(O)c(O)c4)c(O[C@@H]4O[C@H](CO)[C@@H](O)[C@H](O)[C@H]4O[C@@H]4OC[C@@H](O)[C@H](O)[C@H]4O)cc23)[C@H](O)[C@@H](O)[C@@H]1O [delphinidin 3-O-sambubioside 5-O-glucoside]
central facial erythema [2, 3]: reduces | transient central face pustules [2, 3]: eliminates

Cc1ncc([N+](=O)[O-])n1CCO [metronidazole]
reducing rosacea symptoms ([1]; prior-art treatment): effective and safe | side effects ([1]; prior-art treatment): very few people experienced mild itching, skin irritation and dry skin | time until improvements appear ([1]; prior-art treatment): three to six

Ivermectin
efficacy compared with placebo and metronidazole ([1]; prior-art treatment): more effective than placebo and slightly more effective than metronidazole
